From US7632843B2, “Treatment of psychostimulant addiction” (priority 2002, dated 2009)
Like-named read-outs stand apart in the source and are kept apart here.

Assays:
[1] = system: male Wistar rats; test: Craving model: within session extinction and reinstatement paradigm in rats self-administering cocaine; format: in vivo, Rattus norvegicus
Experimental: The study was performed in male Wistar rats (Rattus norvegicus) (the number is given above the columns in the figures) each weighing 180 to 210 g at the beginning of the experiment. The animals used in this experiment were maintained on a 12-hour dark-light cycle under controlled conditions at temperature 22 to 24° C., individually housed in standard cages with free excess to food and water.
In the tests the following active substances were used: • Cocaine hydrochloride • Bromocriptine mesylate • LEK-8829 (9,10-didehydro-N-methyl-N-(2-propynyl)-6-methyl-8β-aminometylergoline bimaleate) Operant Cage for Self-Injecting
The rats were trained and tested in standard operant test chambers (Coulbourn Instruments, Allentown, Pa., USA). Test chambers were built in a modular form and placed in sound-attenuated cubicles. Each was equipped with a ventilating fan that also served as sound source to mask external sound. Chambers were equipped with bulbs emitting white lights. Each chamber contained two nose-poke operanda mounted in 2 cm from the floor and 10 cm apart on the same wall. […] The cocaine solution was administered via the catheter. The latter connected the rat to a syringe ([…] (RAZEL, model A, 10 rpm), installed outside the cage. Time schedule of the experiments and data acquisition were controlled by a computer operated by a software package (Graphic State Notation 2 2.002-00; Coulbourn Instruments, Allentown, Pa., USA).
Each rat was anesthetized with the anaesthetic mixture (ketamine 60 mg/kg and xylazine 8 mg/kg) and implanted with an indwelling jugular catheter. […]
The rats were trained in self-injection of cocaine in daily, 2-hour self-administration sessions during their light cycle, every day except on Saturdays and Sundays. […] Each activation of the active opening was followed by a 30-second period of inactivation (time-out period when the light in the cage was switched off and activation of the active opening was only recorded but without any consequences). […]

[2] = system: rats; test: Drug discrimination study (cocaine 10 mg/kg) in rats; format: in vivo
Source text: (§1) According to the data from literature, it is well known that rodents and primates are capable to discriminate most psychostimulants abused by humans. Therefore, a model of the specific drug discrimination in experimental animals is a suitable method for the assessment of new active substances in case of the abuse of psychostimulants.

[3] = system: Rhesus monkeys; test: Drug discrimination study (cocaine 0.4 mg/kg vs physiological saline) in Rhesus monkeys; format: in vivo; conditions: four Rhesus monkeys; doses 0.032 to 0.32 mg/kg; trained on cocaine 0.4 mg/kg vs saline
Source text: as §1

[4] = system: rats; test: Cocaine self-administration model in rats, saccharin as comparative stimulant; format: in vivo; conditions: for ED50: Rattus norvegicus, rats
Experimental: The action of the active substance LEK-8829 (in the form of bimaleate salt) at doses ranging from 0.25 to 2.5 mg/kg on sensations of pleasure induced by cocaine self-administration was assessed as the effect on the rate of cocaine self-administration in the experiments in five rats. For determination of the specificity of the effect on cocaine, a solution of saccharin was used as a comparative stimulant. […] In the range of medium doses, LEK-8829 caused an increase in overall input of cocaine self-administration in three animals.

[5] = system: D2 receptors; conditions: previous studies (Zivin et al 1996, 1998; Sprah et al 1999); cited from earlier work
[6] = system: mice; test: Inhibition of spontaneous locomotor activity; format: in vivo; conditions: Mus musculus, ip, LEK-8829 bimaleate i.p.
[7] = biological target: D1 receptors (Rattus norvegicus, UniProt P18901); conditions: previous studies (Zivin et al 1996, 1998; Sprah et al 1999); cited from earlier work
Chain of D1 receptors (P18901 whole entry): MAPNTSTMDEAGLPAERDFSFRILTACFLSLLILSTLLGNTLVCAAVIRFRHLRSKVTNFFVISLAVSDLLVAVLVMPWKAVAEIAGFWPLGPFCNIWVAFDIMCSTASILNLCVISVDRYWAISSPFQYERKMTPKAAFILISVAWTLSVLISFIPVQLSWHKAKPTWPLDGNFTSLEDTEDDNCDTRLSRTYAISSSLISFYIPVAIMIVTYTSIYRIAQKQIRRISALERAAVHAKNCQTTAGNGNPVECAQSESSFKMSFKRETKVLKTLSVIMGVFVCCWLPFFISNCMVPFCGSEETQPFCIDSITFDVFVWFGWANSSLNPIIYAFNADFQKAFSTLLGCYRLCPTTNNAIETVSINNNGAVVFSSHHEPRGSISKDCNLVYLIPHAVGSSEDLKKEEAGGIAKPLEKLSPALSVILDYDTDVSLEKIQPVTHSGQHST

[8] = system: Rhesus monkeys; test: Cocaine self-administration versus food intake in Rhesus monkeys; format: in vivo
Experimental: The effect of LEK-8829 (in the form of bimaleate salt) at doses of 0.032 to 0.32 mg/kg intramuscularly on cocaine self-administration in comparison with the effect on food intake (specificity of the effect on feelings of pleasure induced by cocaine, in comparison with non-specific sedative effect) was also tested in four Rhesus monkeys.

[9] = system: mice; test: Inhibition of increased locomotor activity produced by cocaine injection; format: in vivo
Experimental: In the experiments in eight mice, intraperitoneal injection of LEK-8829 (in the form of bimaleate salt) inhibited the increased locomotor activity produced by intraperitoneal cocaine injection of 20 mg/kg.

For C#CCN(C)C[C@@H]1C=C2c3cccc4[nH]cc(c34)C[C@H]2N(C)C1 [LEK-8829, 9,10-didehydro-N-methyl-N-(2-propynyl)-6-methyl-8β-aminomethylergoline], the “effect on cocaine-induced self-injecting (activations of the active opening, last half-hour)” value ([1]; LEK-8829 i.v. 0.25 and 0.5 mg/kg, 30 minutes before cocaine 2 mg/kg i.v., p<0.05 vs SAL+COC) was “statistically significantly reduced cocaine-induced self-injecting”, the “effect on relapse triggered by cocaine (activations of the active opening, last hour)” value ([1]; i.p. 0.5 to 5 mg/kg, 30 minutes before cocaine 2 mg/kg i.v., p<0.05 vs SAL+COC) was “statistically significantly reduced a relapse triggered by cocaine” and the “partial antagonism of cocaine effect” value ([2]; rats, dose 2.5 mg/kg) was 56%. For the same compound, the “replacement of the discriminative stimulating effect of cocaine” value ([2]; six rats, doses 0.25 to 2.5 mg/kg) was “did not replace the discriminative stimulating effect of cocaine”, the “inhibition of the discriminative stimulating effect of cocaine” value ([2]; six rats, doses 0.5 to 5 mg/kg) was “partly inhibited the discriminative stimulating effect of cocaine” and the “discriminative stimulating effect of plain LEK-8829 in the sense of cocaine effect” value [3] was “did not recognize the discriminative stimulating effect”. For the same compound, the ED50 ([4]; non-specific effect, read-out: ED50, blocking effect on the input of saccharin) was 2.16 mg/kg, the ED50 ([4]; read-out: ED50, blocking effect on cocaine self-administration) was 0.17 mg/kg and the “effect on the dose/response curve of cocaine self-administration” value ([4]; five rats, dose range printed 0.2.5 to 1.55 mg/kg, four of five animals) was “produced a right shift of the curve in the ratio dose/response to cocaine”. For the same compound, the “effect on D2 receptors” value [5] was “antagonistic effects on D2 receptors”, the ED50 [6] was 2.1 mg/kg and the “effect on D1 receptors” value [7] was “agonist effects on D1 receptors”. For the same compound, the “effect on the curve dose/input of cocaine at the largest dose” value ([8]; Rhesus monkeys, 0.32 mg/kg i.m.) was “blocked the effect of cocaine along the entire (ascending and descending) part of the curve”, the “effect on the curve dose/input of cocaine at small and medium doses” value ([8]; Rhesus monkeys, 0.032 and 0.1 mg/kg i.m.) was “decreased the ascending part of the curve” and the “effect on food intake” value ([8]; Rhesus monkeys, 0.032 to 0.32 mg/kg i.m.) was “only a minor inhibiting effect on food intake”. The “effect on cocaine self-administration” value ([8]; four Rhesus monkeys, 0.032 to 0.32 mg/kg intramuscularly, dose-dependent) was “inhibited cocaine self-administration”, the “ID50, inhibition of increased locomotor activity produced by cocaine” value ([9]; eight mice, LEK-8829 bimaleate i.p., cocaine 20 mg/kg i.p.) was 1.2 mg/kg and the “ratio of ED50/ID50 (spontaneous vs cocaine-increased locomotor activity)” value ([9]; mice, selectivity of the effect against cocaine) was 1.8.
For CC(C)C[C@H]1C(=O)N2CCC[C@H]2[C@]2(O)O[C@](NC(=O)[C@@H]3C=C4c5cccc6[nH]c(Br)c(c56)C[C@H]4N(C)C3)(C(C)C)C(=O)N12 [Bromocriptine, reference compound], the “appetitive behaviour induced by the substance itself” value ([1]; bromocriptine 2 mg/kg i.v. before the cocaine injection) was “induced the appetitive behaviour”.
